# Laboratory results from publication PMC3774728, “Identification of the Plant Compound Geraniin as a Novel Hsp90 Inhibitor” (PLoS ONE, 2013).
# Key:
# Hsp90α ATPase activity = molecular target: T1, Hsp90α ATPase activity (Homo sapiens, UniProt P07900); experiment: ATP hydrolysis inhibition (ADP Hunter Plus assay); format: biochemical; conditions: 40 nM Hsp90α, 100 µM ATP, 60 min, 40°C
# T1 construct: purchased Assay Designs (Ann Arbor, MI, USA)
# Method: The assay was performed using the Discover RX ADP HunterTM Plus Assay kit, following the manufacturer’s instructions. ATPase reactions were carried out for 60 min at 40°C temperature in 100 mM Tris pH 7.4, 100 µM ATP and 40 nM Hsp90α in the presence of different concentrations of geraniin or 17-AAG. ADP generation was measured using a Perkin Elmer LS 55 fluorimeter (540 nm excitation and 620 nm emission). Fluorescence intensity values measured for Hsp90α without any compound were set at 100% of enzyme activity. The background reaction rate was measured in a reaction lacking enzyme or substrate and subtracted from the experimental rates.
# (§1) Figure 3 Inhibition of Hsp90α activity. ATPase activity of the chaperone was evaluated in the presence of different concentrations of geraniin, 17-AAG and HA (A). Data are reported as the residual ATPase activity (%) compared to that observed for an untreated sample. Data are the mean of three independent experiments performed in triplicate and were analyzed by t test (HA vs testing compounds): The error bar represents the standard deviation of nine measurements, while * indicates significance at P<0.01. Aggregation kinetics of citrate synthase (CS) at 43°C determined by light scattering (B). […]
# [1] = molecular target: T2, Hsp90α chaperone activity (Homo sapiens, UniProt P07900); experiment: Citrate synthase thermal-induced aggregation assay (chaperone activity); format: biochemical; conditions: 0.075 µM CS, 0.075 µM Hsp90α, 0.3 µM ATP, four-fold molar excess (0.3 µM) compound, 43°C
# T2 construct: purchased Assay Designs (Ann Arbor, MI, USA)
# Method: Chaperone activity was evaluated by monitoring the thermal−induced aggregation of citrate synthase (CS) (0.075 µM), as reported elsewhere, in the absence or presence of a stoichiometric amount of Hsp90α and 0.3 µM ATP, and with or without a four−fold molar excess of each testing compound. Aggregation was initiated by unfolding CS incubating the protein in 40 mM HEPES–KOH, pH 7.5 at 43°C. Aggregation was monitored by measuring light scattering at right angles with the Perkin Elmer LS 55 fluorimeter in stirred and thermostatted quartz cells. Both the emission and excitation wavelengths were set at 500 nm, while the band–pass was 2 nm. Kinetics traces reported are the averages of two separate measurements.
# as §1
# Jurkat cells = experiment: MTT cell viability, Jurkat; format: cell-based, human; conditions: Homo sapiens, 24 h
# Method: To ensure logarithmic growth, cells were subcultured every two days. As control cells, human peripheral blood mononuclear cells (PBMC) were isolated from buffy coats of healthy donors (kindly provided by the Blood Center of the Hospital of Battipaglia, Salerno, Italy) by using standard Ficoll−Hypaque gradients. […] Proliferation of PBMC was induced by phytohemagglutinin (PHA) (10 µg mL^−1). Tumor and PBMC cells were treated with different concentrations of geraniin or 17-AAG to evaluate their cytotoxic effects. Stock solutions of geraniin (50 mM in DMSO) and 17-AAG (10 mM in DMSO) were stored a −20°C in the dark and diluted just before addition to the sterile culture medium. In all the experiments, the final concentration of DMSO was 0.10% (v/v).
# Jurkat (2×10^4/well) and HeLa (5000/well) cells were seeded in triplicate in 96 well−plates and incubated for 24 h in the absence or presence of different concentrations of geraniin (between 0,5 µM to 50 µM) or 17-AAG (between 0,5 nM to 10 µM).
# The number of viable cells was determined by using a [3–4,5-dimethyldiazol-2-yl]-2,5-diphenyl tetrazolium bromide (MTT, Sigma-Aldrich) conversion assay, according to the method described by Mosmann. […] The absorbance was measured with a microplate reader (Titertek multiskan MCC7340, LabSystems, Vienna, VA, USA) equipped with a 620 nm filter. […]
smiles,measurement,setting,value
"O=C1O[C@H]2[C@@H]3OC(=O)c4cc(O)c(O)c(O)c4-c4c(cc(O)c(O)c4O)C(=O)OC[C@H]2O[C@@H](OC(=O)c2cc(O)c(O)c(O)c2)[C@@H]3OC(=O)c2cc(O)c(O)c3c2[C@@H]2C1=CC(=O)[C@](O)(O3)C2(O)O [Compound 54, geraniin]",Hsp90α ATPase activity inhibition,Hsp90α ATPase activity,inhibit Hsp90α ATPase activity in a dose−dependent manner
same,effect on citrate synthase aggregation kinetics in the presence of Hsp90α,[1],the curve slope clearly increased
same,IC50,Jurkat cells,760 ± 100 nM
